“Also recorded” adds a separate entry of the source.
Experiments:
SH rats = test: Mean arterial pressure and heart rate after microinjection into the RVLM of rats; type: in vivo, rat
Protocol: Effects of ribotide on mean arterial pressure (MAP) and heart rate (HR). Bilateral I-4-AA-RP microinjections (60 nl, 100 nmol) into the RVLM of SH rats were performed (Emsberger, P. & Haxhiu, M. A. (1997) Am. J. Physiol. 273, R1572-R1579) after the sympatho-excitatory area was confirmed by showing glutamate-induced MAP elevation ≧30 mm Hg. MAP and HR values were measured every 5 min. After each experiment, the injection site was marked by infusion of rhodamine microspheres. Changes were assessed relative to baseline values by two-way repeated measures ANOVA and Dunnett's test. A second group of SH rats (injection controls) received vehicle injections to control for injection effects and for volume artifacts due to multiple injections. Vehicle contained 2 nmol rilmenidine, a sub-threshold dose, far below that known to cause any detectable effect (Gomez, R. E., Emsberger, P., Feinland, G. & Reis, D. J. (1991) Eur. J. Pharmacol. 195, 181-191). In a follow-up study, SH rats (N=6) were given I-4-AA-RP then moxonidine. When used alone, it reduces MAP to normotensive levels (Emsberger, P., Elliott, H. L., Weimann, H.-J., Raap, A., Haxhiu, M. A., Hofferber, E., Low-Kroger, A., Reid, J. L. & Mest, H. J. (1993) Cardiovas. Drug Rev. 11, 411-431).

I1R = I1R model: [3H]arachidonic acid release from PC-12 cells; type: cell-based; conditions: efaroxan 10 μM, before and throughout IAA-RP superfusion
Protocol: Assays for measuring imidazoline receptor-mediated arachidonic acid release from PC12 cells is as described in Ernsberger et al., (1995, FASEB J. 9:A114).
I1R model: [^3H]Arachidonic acid (AA) release from PC-12 cells. Assays (Emsberger, P. (1998) J. Auton. Nerv. Syst. 72, 147-154 Ernsberger, P. (1998) J. Auton. Nerv. Syst. 72, 147-154) were done after a 30 min washout to attain a stable background. Cells were superfused with 0.01% BSA in Krebs buffer for seven 1-min fractions (baseline), then treated with 10 μM or 100 μM I-4-AA-RP alone, or together with efaroxan (10 μM), a prototypical I1-antagonist/I3-agonist. Controls included baseline release with vehicle alone (0-7 min) or vehicle containing efaroxan (5 min) before adding I-4-AA-RP. [^3H]products (>98% AA) collected in each 1-min fraction were expressed as fractional release defined as % total radioactivity incorporated into cells, corrected for [^3H]AA previously released (Ernsberger, P. (1998) J. Auton. Nerv. Syst. 72, 147-154).

I3R [1] = conditions: cited from earlier work
I3R [2] = test: I3R model: insulin release from rat islets of Langerhans; type: cell-based
Protocol: Islets of Langerhans from male Wistar rats were isolated by collagenase digestion in a medium of bicarbonate-buffered physiological saline solution containing 4 mM D-glucose and 1 mM CaCl2. Islets were selected under a binocular dissecting microscope and were used within two hours of isolation. Islets from humans were isolated from heart-beating cadaver organ donors by collagenase digestion and density gradient centrifugation (Chan, S. L. F., et al., 1997, Brit. J. Pharmacol. 120:926-932).
Incubations were done in 96-well plates. Isolated islets were incubated in 100 μl buffer solution supplemented with bovine serum albumin in humidified air: CO2 (95:5%) at 37° C. in the presence of test agents. To eliminate any potential alpha-2 responses, yohimbine (10 μM), a potent alpha2-adrenergic blocker, was included in all incubations. After 60 min incubation, samples of medium were removed for measurement of insulin release by radioimmunoassay using anti-bovine insulin antiserum. Presence of insulin in the test media were compared to controls; positive differences represented amounts of insulin released. In reversal experiments, diazoxide (e.g., 200 μM) was pre-incubated to block glucose-induced insulin release. In these studies, test reagents were used to determine if they were capable of overcoming diazoxide's inhibitory effects on K+ ATP channels, a well known action of imidazoline secretagogues in islet cells. For example, efaroxan (an inhibitor of I-1 responses in adrenal medullary cells) is a well known I-3 agonist, i.e., it stimulates (at 100 μM) release of insulin and overcomes diazoxide inhibition thus illustrating again the dictomy between I1 and I3 receptor subtypes.
I3R model: Insulin release from pancreas (Eglen, R. M., Hudson, A. L., Kendall, D. A., Nutt, D. J., Morgan, N. G., Wilson, V. G. & Dillon, M. P. (1998) TIPS 19, 381-390; Chan, S. L. F. (1998) Gen. Pharmacol. 31, 525-529; Morgan, N. G. (1999) Exp. Opin. Invest. Drugs 8, 575-584). Islets of Langerhans from male Wistar rats or human pancreata were isolated by collagenase digestion. Hand-picked islets were incubated in NaHCO3-buffered saline containing 1 mM CaCl2, 1 mg/ml BSA and test reagents. After incubation, insulin levels in supernatants were analyzed by RIA. The I3-blocker, KU-14R, served to verify I3R function.

COc1nc(C)nc(Cl)c1N=C1NCCN1 [MOX, moxonidine, reference compound]
lowering of MAP (SH rats; SH rats with IAA-RP-elevated MAP, 4 nmol, within 30 min): 37.3±6.3% | reversal of IAA-RP's hypertensive effect (SH rats; SH rats, 4 nmol microinjected): completely reversed IAA-RP's effect

CCC1(C2=NCCN2)Cc2ccccc2O1 (stereo not drawn) [efaroxan, reference compound]
blockade of IAA-RP-induced [3H]AA release (I1R): abolished responses to IAA-RP; also recorded: blocked IAA-RP-induced release | concentration of maximal stimulation of insulin release (I3R [1]): ~100 µM

O=C(O)Cc1cncn1[C@@H]1O[C@H](CO)[C@@H](O)[C@H]1O [pros-IAA-R, 1-(β-D-ribofuranosyl)-imidazole-5-acetic acid]
reversal of the inhibitory action of diazoxide on glucose-induced insulin release (I3R [2]): able to reverse the inhibitory action of diazoxide | stimulation of insulin release (in words) (I3R [2]; rat islets): effects similar to or even greater than that seen with tele IAA-RP

From US7385039B2, “Methods and compositions for regulating imidazoline receptors” (priority 1998, dated 2008)
